The values below come from patent US7608627B2, “6-azaindole compound” (Takeda Pharmaceutical Company Limited, priority 2005, dated 2009).

Each structure is given as a SMILES string. Structures can show the parent of a compound that is named as a salt.

As to `Cl.NCCCO/N=C(\c1ccccc1)c1cc2ccncc2[nH]1`, the melting point (usually the temperature of the solid-liquid transition) was 168 to 174 °C (dec.). For `Cl.Clc1nccc2cc(CNC3CCCC3)[nH]c12`, the melting point lay in the range of 241 to 244 °C.

`NCCON=C(c1ccc(Cl)c(Cl)c1)c1cc2ccncc2[nH]1` (as salt: trifluoroacetate) [Example 134, (3,4-Dichlorophenyl)(1H-pyrrolo[2,3-c]pyridin-2-yl)methanone O-(2-aminoethyl)oxime bis(hydrogen trifluoroacetate)] had a melting point of 64 to 68 °C.

As to `O=C(c1ccoc1)c1cc2ccncc2[nH]1` [Example 137, 3-Furyl(1H-pyrrolo[2,3-c]pyridin-2-yl)methanone], the melting point is 232 to 236 °C (dec.). Next, `CC(C)(C)OC(=O)NCCO/N=C(\c1ccccc1)c1cc2ccncc2[nH]1` [Example 60, tert-Butyl 2-[[[phenyl(1H-pyrrolo[2,3-c]pyridin-2-yl)methylene]amino]oxy]ethylcarbamate]: 84 to 88 °C. For the compound `c1ccc(C(=NOC2CCNCC2)c2cc3ccncc3[nH]2)cc1` (single isomer, unassigned) (as salt: hydrochloride), the melting point is 240 to 245 °C (dec.). Consider `CON=C(c1ccccc1)c1cc2ccncc2[nH]1.Cl` [Example 120], for which the melting point is 202 to 203 °C.

With `O=C(c1cc2ccnc(Cl)c2[nH]1)N1CCSCC1` [Example 14, 7-Chloro-2-(4-thiomorpholinylcarbonyl)-1H-pyrrolo[2,3-c]pyridine], the melting point fell in the range of 62 to 72 °C. As for `Clc1nccc2cc(C(NCc3ccccc3)c3ccccc3)[nH]c12` (centres unmarked) (as salt: hydrochloride) [Example 34, N-Benzyl-N-[(7-chloro-1H-pyrrolo[2,3-c]pyridin-2-yl)(phenyl)methyl]amine dihydrochloride], the melting point was 170 to 185 °C (dec.).

`OC(CCc1ccccc1)c1cc2ccncc2[nH]1` (centres unmarked) [Example 83, 3-Phenyl-1-(1H-pyrrolo[2,3-c]pyridin-2-yl)propan-1-ol] had a melting point of 162 to 166 °C.

As to `OC(c1ccc(Cl)c(Cl)c1)c1cc2ccncc2[nH]1` (centres unmarked) [Example 113, (3,4-Dichlorophenyl)(1H-pyrrolo[2,3-c]pyridin-2-yl)methanol], the melting point was 264 to 266 °C (dec.). For the compound `Cc1ccc(C(O)c2cc3ccncc3[nH]2)cc1` (centres unmarked) [Example 98, (4-Methylphenyl)(1H-pyrrolo[2,3-c]pyridin-2-yl)methanol], the melting point lay in the range of 78 to 82 °C. Next, `CC(C)(C)OC(=O)CO/N=C(\c1ccccc1)c1cc2ccncc2[nH]1` [Example 58, tert-Butyl[[[phenyl(1H-pyrrolo[2,3-c]pyridin-2-yl)methylene]amino]oxy]acetate]: 47 to 52 °C.

With `O=C(c1cc2ccnc(Cl)c2[nH]1)N1CCCC1` [Example 13, 7-Chloro-2-(1-pyrrolidinylcarbonyl)-1H-pyrrolo[2,3-c]pyridine], the melting point lay in the range of 152 to 154 °C. Next, `O=C(CCc1ccccc1)c1cc2ccncc2[nH]1` [Example 89, 3-Phenyl-1-(1H-pyrrolo[2,3-c]pyridin-2-yl)propan-1-one]: 246 to 250 °C. With `CC(C)(C)OC(=O)N1CCC(ON=C(c2ccccc2)c2cc3ccncc3[nH]2)C1` (centres unmarked) [Example 90, tert-Butyl 3-[[[phenyl(1H-pyrrolo[2,3-c]pyridin-2-yl)methylene]amino]oxy]pyrrolidine-1-carboxylate], the melting point fell in the range of 80 to 82 °C.

Compound `OC(c1ccccc1)c1cc2ccnc(N(Cc3ccccc3)Cc3ccccc3)c2[nH]1` (centres unmarked) [Example 46, [7-(Dibenzylamino)-1H-pyrrolo[2,3-c]pyridin-2-yl](phenyl)methanol] displayed a melting point of 53 to 61 °C.

For `CC(C)CC(=O)c1cc2ccncc2[nH]1` [Example 81, 3-Methyl-1-(1H-pyrrolo[2,3-c]pyridin-2-yl)-1-butanone], the melting point is 215 to 218 °C. On to `O=C(NCc1ccccn1)c1cc2ccnc(Cl)c2[nH]1` [Example 4, 7-Chloro-N-(2-pyridinylmethyl)-1H-pyrrolo[2,3-c]pyridine-2-carboxamide], for which the melting point was 177 to 183 °C. `O=C(NCc1ccncc1)c1cc2ccnc(NCc3ccccc3)c2[nH]1` [Example 42, 7-(Benzylamino)-N-(4-pyridinylmethyl)-1H-pyrrolo[2,3-c]pyridine-2-carboxamide] showed a melting point of 199 to 200 °C. Next, `CC(C)C(=O)c1cc2ccncc2[nH]1` [Example 80, 2-Methyl-1-(1H-pyrrolo[2,3-c]pyridin-2-yl)-1-propanone]: 224 to 228 °C; `Cc1ccc(/C(=N/OCCN)c2cc3ccncc3[nH]2)cc1` (single isomer, unassigned) (as salt: trifluoroacetate) [Example 119, (4-Methylphenyl)(1H-pyrrolo[2,3-c]pyridin-2-yl)methanone O-(2-aminoethyl)oxime bis(hydrogen trifluoroacetate)]: 190 to 194 °C; `O=C(c1ccccc1)c1cc2cc(Cl)ncc2[nH]1` [Example 73, (5-Chloro-1H-pyrrolo[2,3-c]pyridin-2-yl)(phenyl)methanone]: 194 to 197 °C. As for `OC(c1ccccn1)c1cc2ccncc2[nH]1` (centres unmarked) [Example 117, (Pyridin-2-yl)(1H-pyrrolo[2,3-c]pyridin-2-yl)methanol], the melting point fell in the range of 166 to 169 °C.

With `Cl.NCCO/N=C(\c1ccccc1)c1cc2ccncc2[nH]1` [Example 95], the melting point was 161 to 165 °C (dec.). For `O=C(c1ccccc1)c1cc2ccnc(N(Cc3ccccc3)Cc3ccccc3)c2[nH]1` [Example 47, [7-(Dibenzylamino)-1H-pyrrolo[2,3-c]pyridin-2-yl](phenyl)methanone] the value was 122 to 124 °C; for `O/N=C(\c1ccccc1)c1cc2ccncc2[nH]1` [Example 39, Phenyl(1H-pyrrolo[2,3-c]pyridin-2-yl)methanone oxime], 132 to 142 °C; for `CC(=O)c1cc2ccncc2[nH]1` [Example 70, 1-(1H-Pyrrolo[2,3-c]pyridin-2-yl)ethanone], 236 to 242 °C (dec.). Regarding `CN1CCN(C(=O)c2cc3ccnc(Cl)c3[nH]2)CC1`, the melting point is 230 to 232 °C. Turning to `CC(C)C(O)c1cc2ccncc2[nH]1` (centres unmarked) [Example 78, 2-Methyl-1-(1H-pyrrolo[2,3-c]pyridin-2-yl)-1-propanol], the melting point lay within 140 to 144 °C. In turn, `OC(c1ccccc1)c1cc2ccncc2[nH]1` (centres unmarked) [Example 52, Phenyl(1H-pyrrolo[2,3-c]pyridin-2-yl)methanol] had a melting point of 178 to 180 °C. In turn, `N=C(N)N/N=C(\c1ccccc1)c1cc2cc(Cl)ncc2[nH]1` (as salt: hydrochloride) displayed a melting point of 274 to 278 °C.

Regarding `Cl.Clc1nccc2cc(CN3CCCCC3)[nH]c12`, the melting point was 240 to 244 °C.

Turning to `O=C(NC(c1ccccc1)c1cc2ccncc2[nH]1)c1ccccn1` (centres unmarked) [Example 50, N-[Phenyl (1H-pyrrolo[2,3-c]pyridin-2-yl)methyl]-2-pyridinecarboxamide], the melting point lay in the range of 102 to 110 °C. On to `O=C(c1ccc(Cl)c(Cl)c1)c1cc2ccncc2[nH]1` [Example 127, (3,4-Dichlorophenyl)(1H-pyrrolo[2,3-c]pyridin-2-yl)methanone], for which the melting point is 274 to 277 °C (dec.). `COc1ccc(/C(=N/OCCN)c2cc3ccncc3[nH]2)cc1` (single isomer, unassigned) (as salt: hydrochloride) [Example 124, (4-Methoxyphenyl)(1H-pyrrolo[2,3-c]pyridin-2-yl)methanone O-(2-aminoethyl)oxime dihydrochloride]: the melting point was 178 to 184 °C. As for `O=C(NCc1ccncc1)c1cc2ccnc(N(Cc3ccccc3)Cc3ccccc3)c2[nH]1` [Example 41, 7-(Dibenzylamino)-N-(4-pyridinylmethyl)-1H-pyrrolo[2,3-c]pyridine-2-carboxamide], the melting point is 119 to 120 °C. On to `OC(c1ccc(Cl)cc1)c1cc2ccncc2[nH]1` (centres unmarked) [Example 101, (4-Chlorophenyl)(1H-pyrrolo[2,3-c]pyridin-2-yl)methanol], for which the melting point fell in the range of 176 to 180 °C.
